Like-named read-outs stand apart in the source and are kept apart here.

Assay type in all cases: in vivo
Experiment [1] deals with ryegrass, Italian (Italian ryegrass, Lolium multiflorum). As to the kind of experiment: Test A preemergence. The conditions noted are these: Lolium multiflorum, pre-emergence, 240 h, 0 to 100 scale (0 no effect, 100 complete control), read-out: Plant response rating, Ryegrass, Italian; for pest or weed control at 125 g/ha: Preemergence, 125 g ai/ha. In outline: (§1)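 Preemergence soil spray on seeded pots or post-emergence spray on 1–2 leaf plants, in loam–sand blend. Greenhouse ~10 d. Visual rating 0–100 against untreated plants.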

The subject of experiment [2] is wheat (Triticum aestivum). As to the kind of experiment: Test A postemergence. Conditions: Triticum aestivum, post-emergence, 240 h, Postemergence; for plant injury at 125 g/ha: 125 g ai/ha, visual rating about 10 d after treatment, read-out: Wheat plant response rating (0 to 100 scale); for plant injury at 500 g/ha: 500 g ai/ha, visual injury, 0 to 100 scale (0 no effect, 100 complete control), approx. 10 d, read-out: Plant response rating, Wheat. In a few lines: as §1

The test system of experiment [3] is blackgrass (Alopecurus myosuroides). The experiment is described as follows: Test A postemergence. Conditions: Alopecurus myosuroides, post-emergence, 240 h, Postemergence; for pest or weed control at 125 g/ha: 125 g ai/ha, visual rating about 10 d after treatment, read-out: Blackgrass plant response rating (0 to 100 scale); for pest or weed control at 500 g/ha: 500 g ai/ha, visual injury, 0 to 100 scale (0 no effect, 100 complete control), approx. 10 d, read-out: Plant response rating, Blackgrass. In outline:
as §1

Experiment [4] has as its system corn (Zea mays). As to the kind of experiment: Test A postemergence. The conditions noted are these: Zea mays, post-emergence, 240 h, Postemergence; for plant injury at 125 g/ha: 125 g ai/ha, visual rating about 10 d after treatment, read-out: Corn plant response rating (0 to 100 scale); for Corn plant response rating (crop injury, 0 = no effect, 100 = complete kill) at 500 g/ha: 500 g ai/ha, visual injury, 0 to 100 scale (0 no effect, 100 complete control), approx. 10 d. In a few lines: as §1

Experiment [5] relates to giant foxtail (Setaria faberii). As to the kind of experiment: Test A postemergence. The conditions noted are these: Setaria faberi, post-emergence, 240 h, Postemergence; for pest or weed control at 125 g/ha: 125 g ai/ha, visual rating about 10 d after treatment, read-out: Foxtail, Giant plant response rating (0 to 100 scale); for pest or weed control at 500 g/ha: 500 g ai/ha, visual injury, 0 to 100 scale (0 no effect, 100 complete control), approx. 10 d, read-out: Plant response rating, Foxtail, Giant. In outline: as §1

Experiment [6] has as its system Kochia (Kochia scoparia). The experiment is described as follows: Test A postemergence. The conditions noted are these: Bassia scoparia, post-emergence, 240 h, Postemergence; for pest or weed control at 125 g/ha: 125 g ai/ha, visual rating about 10 d after treatment, read-out: Kochia plant response rating (0 to 100 scale); for pest or weed control at 500 g/ha: 500 g ai/ha, visual injury, 0 to 100 scale (0 no effect, 100 complete control), approx. 10 d, read-out: Plant response rating, Kochia. In a few lines:
as §1

The subject of experiment [7] is ryegrass, Italian (Italian ryegrass, Lolium multiflorum). As to the kind of experiment: Test A postemergence. Conditions: Lolium multiflorum, post-emergence, 240 h, Postemergence; for pest or weed control at 125 g/ha: 125 g ai/ha, visual rating about 10 d after treatment, read-out: Ryegrass, Italian plant response rating (0 to 100 scale); for pest or weed control at 500 g/ha: 500 g ai/ha, visual injury, 0 to 100 scale (0 no effect, 100 complete control), approx. 10 d, read-out: Plant response rating, Ryegrass, Italian. In outline:
as §1

Experiment [8] relates to Galium (catchweed bedstraw, Galium aparine). The experiment is described as follows: Test A postemergence. The conditions noted are these: Galium, post-emergence, 240 h, Postemergence; for pest or weed control at 125 g/ha: 125 g ai/ha, visual rating about 10 d after treatment, read-out: Galium plant response rating (0 to 100 scale); for pest or weed control at 500 g/ha: 500 g ai/ha, visual injury, 0 to 100 scale (0 no effect, 100 complete control), approx. 10 d, read-out: Plant response rating, Galium. In a few lines:
as §1

Experiment [9] deals with pigweed (Amaranthus retroflexus). As to the kind of experiment: Test A postemergence. Conditions: Amaranthus retroflexus, post-emergence, 240 h, Postemergence; for pest or weed control at 125 g/ha: 125 g ai/ha, visual rating about 10 d after treatment, read-out: Pigweed plant response rating (0 to 100 scale); for pest or weed control at 500 g/ha: 500 g ai/ha, visual injury, 0 to 100 scale (0 no effect, 100 complete control), approx. 10 d, read-out: Plant response rating, Pigweed. In a few lines: as §1

The test system of experiment [10] is ragweed (common ragweed, Ambrosia elatior). The experiment is described as follows: Test A postemergence. The conditions noted are these: Ambrosia artemisiifolia, post-emergence, 240 h, Postemergence; for pest or weed control at 125 g/ha: 125 g ai/ha, visual rating about 10 d after treatment, read-out: Ragweed plant response rating (0 to 100 scale); for pest or weed control at 500 g/ha: 500 g ai/ha, visual injury, 0 to 100 scale (0 no effect, 100 complete control), approx. 10 d, read-out: Plant response rating, Ragweed. In outline:
as §1

For experiment [11], the system named is rice (Oryra sativa). The experiment is described as follows: Test B flooded paddy test. Conditions: Oryza sativa, 250 g ai/ha, Flood. In a few lines: (§2)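 Percent control, visually estimated after 13–15 d in the greenhouse on a 0–100 basis, compares treated pots with untreated ones; compound was put into paddy water 3 cm above the soil when plants had two leaves.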

In experiment [12] the test system is sedge, umbrella (small-flower umbrella sedge, Cyperus difformis). The experiment is described as follows: Test B flooded paddy test. The conditions noted are these: Cyperus difformis, 360 h, Flood, 250 g ai/ha; visually evaluated after 13 to 15 d; read-out: Plant response rating, Sedge, Umbrella (0 to 100 scale where 0 is no effect and 100 is complete control). In outline:
as §2

The subject of experiment [13] is ducksalad (Heteranthera limosa). As to the kind of experiment: Test B flooded paddy test. Conditions: Heteranthera limosa, 250 g ai/ha, Flood. In outline:
as §2

In experiment [14] the test system is barnyardgrass (Echinochloa crus-galli). As to the kind of experiment: Test B flooded paddy test. The conditions noted are these: Echinochloa crus-galli, 250 g ai/ha, Flood. In a few lines: as §2

Turning to `CSc1ccccc1NC(=O)[C@H]1C(=O)N(C)C[C@@H]1c1ccc(F)c(C)c1` [Compound 1312], the pest or weed control at 125 g/ha in experiment [1] came out at 60%; in experiment [3], 50%; in experiment [5] it was 90%; in experiment [6], 50%; in [7], 30%; in experiment [8], 50%. The pest or weed control at 125 g/ha in experiment [9] and in experiment [10] was 0% in each case. The values for the plant injury at 125 g/ha in [2] and in experiment [4] were 30% and 40%, respectively. For the same molecule, the plant injury at 500 g/ha in experiment [2] came out at 80%. Moreover, the pest or weed control at 500 g/ha in [3] worked out at 70%; in [5], 90%; in experiment [6], 70%; in [7] it was 50%; in experiment [8], 60%; in [9], 40%. Moreover, the pest or weed control at 500 g/ha in experiment [10] was 70%. This molecule displayed a Corn plant response rating (crop injury, 0 = no effect, 100 = complete kill) at 500 g/ha in experiment [4] of 90%. Moreover, the pest or weed control at 250 g/ha in experiment [11] (0 to 100 scale where 0 is no effect and 100 is complete control, read-out: Rice plant response rating) is 0%; in [12] it was 0%; in experiment [13] (0 to 100 scale where 0 is no effect and 100 is complete control, read-out: Ducksalad plant response rating), 100%; in [14] (0 to 100 scale where 0 is no effect and 100 is complete control, read-out: Barnyardgrass plant response rating), 40%.
Turning to `CN1C[C@H](c2ccc(C(F)(F)F)nc2)[C@@H](C(=O)Nc2ccc(F)c(F)c2F)C1=O` [Compound 1373], the pest or weed control at 500 g/ha in experiment [1] (500 g ai/ha, preemergence) was 90%; in experiment [3], 60%; in [5] it was 90%; in [6], 80%; in [7], 50%; in experiment [8] it was 60%. Also, the pest or weed control at 500 g/ha in experiment [9] worked out at 90%; in [10], 70%. In addition, the pest or weed control at 125 g/ha in experiment [1] is 60%; in [3], 50%; in experiment [5] it was 90%; in experiment [6] it was 80%; in experiment [7], 30%; in experiment [8], 60%. Further, the pest or weed control at 125 g/ha in experiment [9] came out at 70%; in [10], 60%. The figures for the plant injury at 125 g/ha in experiment [2] and in [4] were 50% and 90%, respectively. The plant injury at 500 g/ha in experiment [2] was determined as 60%. The molecule further showed a Corn plant response rating (crop injury, 0 = no effect, 100 = complete kill) at 500 g/ha in experiment [4] of 90%. Besides, the pest or weed control at 250 g/ha came out at 0% in experiment [11] (360 h, visually evaluated after 13 to 15 d, read-out: Plant response rating, Rice (0 to 100 scale where 0 is no effect and 100 is complete control)); 0% in [12]; 100% in [13] (360 h, visually evaluated after 13 to 15 d, read-out: Plant response rating, Ducksalad (0 to 100 scale where 0 is no effect and 100 is complete control)); 85% in [14] (360 h, visually evaluated after 13 to 15 d, read-out: Plant response rating, Barnyardgrass (0 to 100 scale where 0 is no effect and 100 is complete control)).

The values are drawn from patent publication US12077503B2, “Substituted cyclic amides and their use as herbicides” (FMC CORPORATION, priority 2015, dated 2024).
